Experimental data reported in ChEMBL document CHEMBL5331076, “Streptogramin A derivatives as mitochondrial translation inhibitors to suppress glioblastoma stem cell growth” (Eur J Med Chem, 2023).
Active and inactive are the calls of the source. The rule behind the calls is not given here. *1 amine or outer side, *2 acyl side, *3 side chain or, on linkers, in order; H or OH if unused. Where a SMILES comes first, the peptide text is derived from it. Bridges are numbered along the chain shown (N, C = ends). [ ]: non-standard residue; d: D form. The star is where a group is joined. X1 = O=C1C[C@@H](C(=O)[*:2])N([*:1])C[C@H]1CS[C@@H]1CN2CCC1CC2; NMePhe(4-NMe2) = CN[C@@H](Cc1ccc(N(C)C)cc1)C(=O)O; Picolinoyl(3-OH) = O=C(c1ncccc1O)*; Phg = N[C@H](C(=O)O)c1ccccc1; dAbu = CC[C@@H](N)C(=O)O

What was measured:
[1] = Potency index, ratio of temozolomide GI50 to test compound GI50 for human VIPI cells in the presence of quinupristin; type: functional
[2] = system: COMI; test: Potency index, ratio of temozolomide GI50 to test compound GI50 for human COMI cells in the presence of quinupristin; type: functional
[3] = system: COMI; test: Growth inhibition of human COMI cells incubated for 48 hrs by Hoechst 33342/PI staining based analysis; type: functional
[4] = system: VIPI; test: Growth inhibition of human VIPI cells incubated for 48 hrs by Hoechst 33342/PI staining based analysis; type: functional
[5] = system: COMI; test: Growth inhibition of human COMI cells incubated for 48 hrs in the presence of quinupristin by Hoechst 33342/PI staining based analysis; type: functional
[6] = system: VIPI; test: Growth inhibition of human VIPI cells incubated for 48 hrs in the presence of quinupristin by Hoechst 33342/PI staining based analysis; type: functional
[7] = system: COMI; test: Inhibition of mitochondrial translation in human COMI cells assessed as decrease in ND3 expression level at 0.38 uM incubated for 24 hrs in the presence of emetine by [35S]-methionine labelling based SDS-PAGE analysis; type: functional, cell-based
[8] = system: COMI; test: Inhibition of mitochondrial translation in human COMI cells assessed as decrease in COX1 expression level at 0.38 uM incubated for 24 hrs in the presence of emetine by [35S]-methionine labelling based SDS-PAGE analysis; type: functional, cell-based
[9] = system: COMI; test: Inhibition of mitochondrial translation in human COMI cells assessed as decrease in COX2 expression level at 0.38 uM incubated for 24 hrs in the presence of emetine by [35S]-methionine labelling based SDS-PAGE analysis; type: functional, cell-based
[10] = system: COMI; test: Inhibition of mitochondrial translation in human COMI cells assessed as decrease in ND3 expression level at 0.5 to 5 uM incubated for 48 hrs by immunoblotting analysis; type: functional, cell-based; conditions: dose 0.5-5 µM
[11] = system: COMI; test: Inhibition of mitochondrial translation in human COMI cells assessed as decrease in COX1 expression level at 0.5 to 5 uM incubated for 48 hrs by immunoblotting analysis; type: functional, cell-based; conditions: dose 0.5-5 µM
[12] = system: COMI; test: Inhibition of mitochondrial translation in human COMI cells assessed as decrease in COX2 expression level at 0.5 to 5 uM incubated for 48 hrs by immunoblotting analysis; type: functional, cell-based; conditions: dose 0.5-5 µM
[13] = system: COMI; test: Inhibition of mitochondrial translation in human COMI cells assessed as increase in COX4 expression level at 0.5 to 5 uM incubated for 48 hrs by immunoblotting analysis; type: functional, cell-based; conditions: dose 0.5-5 µM
[14] = system: COMI; test: Inhibition of mitochondrial translation in human COMI cells assessed as decrease in ND3 expression level at 0.5 uM incubated for 24 hrs in the presence of quinupristin and emetine by [35S]-methionine labelling based SDS-PAGE analysis; type: functional, cell-based
[15] = system: COMI; test: Inhibition of mitochondrial translation in human COMI cells assessed as decrease in COX1 expression level at 0.5 uM incubated for 24 hrs in the presence of quinupristin and emetine by [35S]-methionine labelling based SDS-PAGE analysis; type: functional, cell-based
[16] = system: COMI; test: Inhibition of mitochondrial translation in human COMI cells assessed as decrease in COX2 expression level at 0.5 uM incubated for 24 hrs in the presence of quinupristin and emetine by [35S]-methionine labelling based SDS-PAGE analysis; type: functional, cell-based
[17] = system: COMI; test: Inhibition of mitochondrial translation in human COMI cells assessed as decrease in ND3 expression level at 0.5 to 5 uM incubated for 48 hrs in the presence of quinupristin by immunoblotting analysis; type: functional, cell-based; conditions: dose 0.5-5 µM
[18] = system: COMI; test: Inhibition of mitochondrial translation in human COMI cells assessed as decrease in COX1 expression level at 0.5 to 5 uM incubated for 48 hrs in the presence of quinupristin by immunoblotting analysis; type: functional, cell-based; conditions: dose 0.5-5 µM
[19] = system: COMI; test: Inhibition of mitochondrial translation in human COMI cells assessed as decrease in COX2 expression level at 0.5 to 5 uM incubated for 48 hrs in the presence of quinupristin by immunoblotting analysis; type: functional, cell-based; conditions: dose 0.5-5 µM
[20] = system: COMI; test: Inhibition of mitochondrial translation in human COMI cells assessed as increase in COX4 expression level at 0.5 to 5 uM incubated for 48 hrs in the presence of quinupristin by immunoblotting analysis; type: functional, cell-based; conditions: dose 0.5-5 µM
[21] = system: COMI; test: Growth inhibition of human COMI cells in the presence of quinupristin; type: functional
[22] = system: VIPI; test: Growth inhibition of human VIPI cells in the presence of quinupristin; type: functional
[23] = system: COMI; test: Potency index, ratio of temozolomide GI50 to test compound GI50 for human COMI cells in the presence of dalfopristin; type: functional
[24] = Potency index, ratio of temozolomide GI50 to test compound GI50 for human VIPI cells in the presence of dalfopristin; type: functional
[25] = system: COMI; test: Growth inhibition of human COMI cells incubated for 48 hrs in the presence of dalfopristin by Hoechst 33342/PI staining based analysis; type: functional
[26] = system: VIPI; test: Growth inhibition of human VIPI cells incubated for 48 hrs in the presence of dalfopristin by Hoechst 33342/PI staining based analysis; type: functional
[27] = system: COMI; test: Inhibition of mitochondrial translation in human COMI cells assessed as decrease in ND3 expression level at 0.38 to 2 uM incubated for 24 hrs in the presence of emetine by [35S]-methionine labelling based SDS-PAGE analysis; type: functional, cell-based; conditions: dose 0.38-2 µM
[28] = system: COMI; test: Inhibition of mitochondrial translation in human COMI cells assessed as decrease in COX1 expression level at 0.38 to 2 uM incubated for 24 hrs in the presence of emetine by [35S]-methionine labelling based SDS-PAGE analysis; type: functional, cell-based; conditions: dose 0.38-2 µM
[29] = system: COMI; test: Inhibition of mitochondrial translation in human COMI cells assessed as decrease in COX2 expression level at 0.38 to 2 uM incubated for 24 hrs in the presence of emetine by [35S]-methionine labelling based SDS-PAGE analysis; type: functional, cell-based; conditions: dose 0.38-2 µM
[30] = system: COMI; test: Inhibition of mitochondrial translation in human COMI cells assessed as decrease in ND3 expression level at 0.5 uM incubated for 24 hrs in the presence of dalfopristin and emetine by [35S]-methionine labelling based SDS-PAGE analysis; type: functional, cell-based
[31] = system: COMI; test: Inhibition of mitochondrial translation in human COMI cells assessed as decrease in COX1 expression level at 0.5 uM incubated for 24 hrs in the presence of dalfopristin and emetine by [35S]-methionine labelling based SDS-PAGE analysis; type: functional, cell-based
[32] = system: COMI; test: Inhibition of mitochondrial translation in human COMI cells assessed as decrease in COX2 expression level at 0.5 uM incubated for 24 hrs in the presence of dalfopristin and emetine by [35S]-methionine labelling based SDS-PAGE analysis; type: functional, cell-based
[33] = system: COMI; test: Inhibition of mitochondrial translation in human COMI cells assessed as decrease in ND3 expression level at 0.5 to 5 uM incubated for 48 hrs in the presence of dalfopristin by immunoblotting analysis; type: functional, cell-based; conditions: dose 0.5-5 µM
[34] = system: COMI; test: Inhibition of mitochondrial translation in human COMI cells assessed as decrease in COX1 expression level at 0.5 to 5 uM incubated for 48 hrs in the presence of dalfopristin by immunoblotting analysis; type: functional, cell-based; conditions: dose 0.5-5 µM
[35] = system: COMI; test: Inhibition of mitochondrial translation in human COMI cells assessed as decrease in COX2 expression level at 0.5 to 5 uM incubated for 48 hrs in the presence of dalfopristin by immunoblotting analysis; type: functional, cell-based; conditions: dose 0.5-5 µM
[36] = system: COMI; test: Inhibition of mitochondrial translation in human COMI cells assessed as increase in COX4 expression level at 0.5 to 5 uM incubated for 48 hrs in the presence of dalfopristin by immunoblotting analysis; type: functional, cell-based; conditions: dose 0.5-5 µM
[37] = system: COMI; test: Growth inhibition of human COMI cells in the presence of dalfopristin; type: functional
[38] = system: VIPI; test: Growth inhibition of human VIPI cells in the presence of dalfopristin; type: functional

`CCN(CC)CCS(=O)(=O)[C@@H]1CCN2C(=O)c3coc(n3)CC(=O)C[C@H](O)/C=C(C)/C=C/CNC(=O)/C=C/[C@@H](C)[C@@H](C(C)C)OC(=O)[C@@H]12` [DALFOPRISTIN] showed a RatioGI50 [1] of 15, a RatioGI50 [2] of 15 and a GI50 [3] of 8.6 µM. For the same compound, the GI50 [4] was 16.2 µM, the GI50 [5] was 6.5 µM and the GI50 [6] was 20.2 µM. For the same compound, the inhibition [7] was “Active”, the inhibition [8] was “Active” and the inhibition [9] was “Active”. The inhibition [10] was “Active”, the inhibition [11] was “Active” and the inhibition [12] was “Active”. The inhibition [13] was “Active”, the inhibition [14] was “Active” and the inhibition [15] was “Active”. For the same compound, the inhibition [16] was “Active”, the inhibition [17] was “Active” and the inhibition [18] was “Active”. For the same compound, the inhibition [19] was “Active”, the inhibition [20] was “Active” and the GI50 [21] was 6.5 µM. It also gave a GI50 [22] of 20.2 µM.

`CC[C@H]1NC(=O)[C@@H](NC(=O)c2ncccc2O)[C@@H](C)OC(=O)[C@H](c2ccccc2)NC(=O)[C@@H]2CC(=O)[C@H](CS[C@@H]3CN4CCC3CC4)CN2C(=O)[C@H](Cc2ccc(N(C)C)cc2)N(C)C(=O)[C@@H]2CCCN2C1=O` [QUINUPRISTIN] ({Picolinoyl(3-OH)}-T[dAbu]P[NMePhe(4-NMe2)][X1][Phg]; ester 1-C) showed a RatioGI50 [23] of 15, a RatioGI50 [24] of 15 and a GI50 [3] of 3 µM. For the same compound, the GI50 [4] was 21.4 µM, the GI50 [25] was 6.5 µM and the GI50 [26] was 20.2 µM. The inhibition [27] was “inactive”, the inhibition [28] was “inactive” and the inhibition [29] was “inactive”. The inhibition [10] was “inactive”, the inhibition [11] was “inactive” and the inhibition [12] was “inactive”. The inhibition [13] was “inactive”, the inhibition [30] was “Active” and the inhibition [31] was “Active”. For the same compound, the inhibition [32] was “Active”, the inhibition [33] was “Active” and the inhibition [34] was “Active”. The inhibition [35] was “Active”, the inhibition [36] was “Active” and the GI50 [37] was 6.5 µM. The GI50 [38] was 20.2 µM.
